These results are taken from patent publication US4590207A, “Therapeutic and/or preventive ophthalmic solution for intraocular hypertension and glaucoma” (Eisai Co., Ltd., priority 1984, dated 1986).

In one data set the test system is ddy mice. In words: Acute toxicity (intravenous), mortality 24 hours after administration. Type of data set: in vivo. The conditions noted are these: for mortality: 24 hours. Here is the method: 500 mg/kg and 1,000 mg/kg of each of isosorbide-5-mononitrate (5-ISMN) and isosorbide-2-mononitrate (2-ISMN) were intravenously injected to ddy mice of approximately 20 g in body weight to observe their toxicity. The mortality was determined 24 hours after the administration.

Data set [1] concerns intraocular hypertension of rabbits caused by α-chymotrypsin. The experiment in a line: Effect on intraocular hypertension of rabbits caused by α-chymotrypsin (intraocular tension). Type of data set: in vivo, male white rabbits. Further details: Intraocular tension: unit not given here. The conditions noted are these: for Intraocular tension: 35 μl instilled, mean of five animals ± standard error; for effects of lowering intraocular tension (conclusion): ophthalmic solution containing 5-ISMN or 2-ISMN. How it is done:
Models of intraocular hypertension were prepared by the use of male white rabbits of approximately 2.5 kg in body weight according to the method reported by Sears (cf. Sears, D. and Sears, M., Am. J. Ophthalmol., Vol. 77, No. 3, p. 378 to 383, 1974). A rabbit was anesthetized by intravenously injecting 20 mg/kg of pentobarbital sodium and 2% of lidocaine was instilled in the left eye of the animal to anesthetize locally. A volume of 0.5 ml physiological saline solution was injected into the anterior chamber of the left eye with a needle and subsequently 0.5 ml of α-chymotrypsin 300 NFU/ml was injected into the posterior chamber with another needle while holding the former needle as such. After removing the needle inserted into the posterior chamber, the needle inserted into the anterior chamber was removed. The rabbit experimentally suffering from intraocular hypertension thus prepared was allowed to stand for 25 to 30 days to thereby recover from postoperative keratitis or conjunctivitis and to hold a stable intraocular hypertension. Then it was subjected to the test.
Intraocular tension was determined with a Perkin's Hand Applanation Tonometer (a product of Clement Clark, London) under anesthesia with 2% halothane, having 2 l/min of oxygen, and local anesthesia with 0.4% of benoxil.
Intraocular tension was measured five times and the mean value was recorded.
5-ISMN and 2-ISMN were employed as the test compounds and dissolved in a physiological saline solution.
A volume of 35 μl of each solution was instilled in the left eye treated with α-chymotrypsin. Each solution was administered to five rabbits according to a crossover design.

The next data set in a line: Solubility in water. Format: physicochemical.
Where [2] appears, read: 500 mg/kg intravenous, ten animals.

Where only a bound is given, the exact number is not on record here.

Regarding `O=[N+]([O-])OC1COC2C(O)COC12` (stereo not drawn) [2-ISMN, isosorbide-2-mononitrate], the symptoms observed entry in the data set on ddy mice (500 mg/kg and 1,000 mg/kg groups, intravenous) is given as “Slight ataxia”. The mortality result in the data set on ddy mice (setting [2]) and in the data set with ddy mice (1,000 mg/kg intravenous) was “No animal died of the ten animals” throughout. The Intraocular tension is 31.2 ± 0.6 in data set [1] (0 hr, 3.0% solution); 29.0 ± 0.8 in data set [1] (1 hr, 3.0% solution); 29.1 ± 0.9 in data set [1] (3 hr, 3.0% solution); 25.1 ± 1.4 in data set [1] (5 hr, 3.0% solution); 24.6 ± 1.4 in data set [1] (7 hr, 3.0% solution); 21.8 ± 1.3 in data set [1] (9 hr, 3.0% solution). Moreover, the “effect of lowering intraocular tension” value in data set [1] (dose of 3%) is reported as “exhibits an effect of lowering intraocular tension”. The “effects of lowering intraocular tension (conclusion)” value in data set [1] is “remarkable, continuous effects of lowering intraocular tension”. The solubility in water result in the data set “Solubility in water” is recorded as “highly soluble in water”.
Regarding `O=[N+]([O-])OC1COC2C(O)COC12` (stereo not drawn) [5-ISMN, isosorbide-5-mononitrate], the symptoms observed result in the data set with ddy mice (500 mg/kg intravenous) is “Slight ataxia and restlessness”. The “time to disappearance of symptoms (ataxia and restlessness)” value in the data set on ddy mice (500 mg/kg intravenous) is ≤ 30 min. In addition, the figures for the mortality entry with ddy mice (setting [2]) and in the data set on ddy mice (1,000 mg/kg intravenous) were “No animal died of the ten animals” and “no animal died”, respectively. Besides, the Intraocular tension is 30.5 ± 0.8 in data set [1] (0 hr, 0.3% solution); 30.2 ± 0.5 in data set [1] (0 hr, 1.0% solution); 30.8 ± 0.8 in data set [1] (0 hr, 3.0% solution); 21.5 ± 0.5 in data set [1] (1 hr, 0.3% solution); 22.0 ± 1.9 in data set [1] (1 hr, 1.0% solution); 20.3 ± 0.9 in data set [1] (1 hr, 3.0% solution). In addition, the Intraocular tension in data set [1] (3 hr, 0.3% solution) was found to be 20.1 ± 0.9; in data set [1] (3 hr, 1.0% solution) it was 19.1 ± 0.6; in data set [1] (3 hr, 3.0% solution), 16.4 ± 0.5; in data set [1] (5 hr, 0.3% solution), 19.8 ± 1.2; in data set [1] (5 hr, 1.0% solution), 18.6 ± 0.9; in data set [1] (5 hr, 3.0% solution), 15.7 ± 0.5. Further, the Intraocular tension came to 20.5 ± 0.7 in data set [1] (7 hr, 0.3% solution); 18.5 ± 1.0 in data set [1] (7 hr, 1.0% solution); 16.2 ± 1.8 in data set [1] (7 hr, 3.0% solution); 19.6 ± 1.8 in data set [1] (9 hr, 0.3% solution); 19.8 ± 1.3 in data set [1] (9 hr, 1.0% solution); 16.2 ± 2.2 in data set [1] (9 hr, 3.0% solution). The “dose dependence of effect of lowering intraocular tension” value in data set [1] (dose of 0.3 to 3%) is “would depend on the dose”. In data set [1] (dose of 0.3 to 3%), the “duration of effect of lowering intraocular tension” value was “at least nine”. Moreover, the “effect of lowering intraocular tension” value in data set [1] (dose of 0.3 to 3%) is reported as “remarkable effect of lowering intraocular tension”. In addition, the “effects of lowering intraocular tension (conclusion)” value in data set [1] is listed as “remarkable, continuous effects of lowering intraocular tension”. The solubility in water entry in “Solubility in water” is reported as “highly soluble in water”.
